In patent publication US6982348B2, “Aminoethanol derivatives” (Takeda Pharmaceutical Company Limited, priority 2001, dated 2006):

Columns and labels:
[1] = biological target: T1, human CETP (Homo sapiens, UniProt P11597); assay: Assay of cholesteryl ester transfer protein inhibitory activity, standard measurement system; format: biochemical; conditions: BODIPY-CE-ME donor, VLDL-LDL acceptor, reaction at 37° C. for 30 min.
T1 sequence (P11597 18-493): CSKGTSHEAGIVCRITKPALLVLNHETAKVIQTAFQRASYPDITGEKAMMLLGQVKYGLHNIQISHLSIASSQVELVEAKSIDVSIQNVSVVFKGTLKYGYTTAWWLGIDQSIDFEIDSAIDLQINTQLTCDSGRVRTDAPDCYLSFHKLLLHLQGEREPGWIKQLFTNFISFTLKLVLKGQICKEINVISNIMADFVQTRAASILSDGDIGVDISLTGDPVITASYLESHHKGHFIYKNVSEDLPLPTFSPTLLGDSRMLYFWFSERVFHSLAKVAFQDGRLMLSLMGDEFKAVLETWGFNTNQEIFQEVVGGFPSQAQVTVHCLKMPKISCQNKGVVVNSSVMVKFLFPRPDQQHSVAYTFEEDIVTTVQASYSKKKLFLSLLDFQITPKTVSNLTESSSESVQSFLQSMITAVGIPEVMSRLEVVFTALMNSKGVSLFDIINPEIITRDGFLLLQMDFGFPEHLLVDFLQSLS
Procedure: (§1) Assay of Cholesteryl Ester Transfer Protein Inhibitory Activity
(§2) Fresh rabbit serum was adjusted with KBr to the density of (1.063 g/ml), and the fractions (VLDL-LDL, density<1.063 g/ml) floated by ultra-centrifugation operation (SW41—Ti, 40,000 rpm, 18 hrs., 4° C., Beckman model L8-55) were collected, subjected to dialysis against 0.15 M NaCl-10 mM Tris-HCl, pH 7.4 (TBS), sterilized by filtration through a filter and preserved at 4° C.
(§3) A solution of BODIPY-CE (0.6 mg) in chloroform was added to egg PC (phosphatidylcholine) ([…]) and triolein (2 mg), and after dissolution, the lipid was air dried under a nitrogen gas reflux and the solvent was removed under high vacuum. To this lipid was added an apo HDL solution (7.5 ml) obtained by defatting human HDL (1.063<d<1.21) with chloroform-methanol (2:1, v/v), dissolving in 6 M urea-containing TBS and dialyzing against TBS, and the mixture was subjected to sonication (BRANSON SONIFIRE CELL DISRUPTOR 200, dial 6, 5 min×4) to give BOBIPY-CE-ME. After centrifugation (CENTRIPREP 10), it was sterilized by filtration through a filter and preserved at 4° C.
(§4) The test compound (20% DMSO solution, 5 μl), TS (75 μl), acceptor lipoprotein (VLDL-LDL, 20 μl) and partially purified human CETP (25 μl) were mixed and incubated at 37° C. for 30 min. BODIPY-CE-ME (25 μl) was added (total 150 μl) and a transfer reaction was started. After reaction at 37° C. for 30 min., fluorescence intensity was measured at Ex. 490 nm/Em. 530 nm. The CETP inhibitory activity (% inhibition) was calculated by the following formula. [formula] 4) 50% Human Plasma-Containing Measurement System
(§5) The IC50 value was determined as a concentration showing 50% inhibition by plotting the logarithm of the concentration of test compound and % inhibition.

[2] = biological target: T1, human CETP; assay: Assay of cholesteryl ester transfer protein inhibitory activity, 50% human plasma-containing measurement system; format: biochemical; conditions: BODIPY-CE-ME donor, VLDL-LDL acceptor, reaction at 37° C. for 60 min.
Procedure: as §1, §2, §3
as §4, with “5 μl), human plasma (75 μl),” for “5 μl), TS (75 μl),”, “C. for 60 min., fluorescence” for “C. for 30 min., fluorescence”, “formula. [formula]” for “formula. [formula] 4) 50% Human Plasma-Containing Measurement System”
as §5

IC50 [1] [µM]	IC50 [2] [µM]	melting point [°C]	SMILES
0.0086	0.24	–	O=C(NC(Cc1cccc(OC(F)(F)C(F)F)c1)C(O)c1ccc(F)cc1)c1cccc2c1C=CCCC2 (stereo not drawn) [229(+)-form]
0.17	1.4	193 to 194	O=C(N[C@H](Cc1ccc2c(c1)OC(F)(F)C(F)(F)O2)[C@@H](O)c1ccc(F)cc1)c1ccc(F)c2ccccc12 (racemic) [Example 271, 4-fluoro-N-{(1RS,2SR)-2-(4-fluorophenyl)-2-hydroxy-1-[(2,2,3,3-tetrafluoro-2,3-dihydro-1,4-benzodioxin-6-yl)methyl]ethyl}-1-naphthamide]
0.051	2	186 to 187	O=C(N[C@H](Cc1cccc(OC(F)(F)C(F)F)c1)[C@@H](O)c1ccc(F)cc1)c1ccc(F)c2ccccc12 (racemic) [Example 125, 4-fluoro-N-[(1RS,2SR)-2-(4-fluorophenyl)-2-hydroxy-1-[3-(1,1,2,2-tetrafluoroethoxy)benzyl]ethyl]naphthalene-1-carboxamide]
0.03	0.99	–	O=C(NC(Cc1cccc(OC(F)(F)C(F)F)c1)C(O)c1ccc(F)cc1)c1ccc(F)c2ccccc12 (stereo not drawn) [228(+)-form]
0.015	0.49	176 to 177	O=C(N[C@H](Cc1cccc(OC(F)(F)C(F)F)c1)[C@@H](O)c1ccc(F)cc1)c1cccc2c1C=CCCC2 (racemic) [Example 122, N-[(1RS,2SR)-2-(4-fluorophenyl)-2-hydroxy-1-[3-(1,1,2,2-tetrafluoroethoxy)benzyl]ethyl]-6,7-dihydro-5H-benzo[a]cycloheptene-1-carboxamide]
0.07	1	189 to 190	O=C(N[C@H](Cc1cccc(OC(F)(F)C(F)F)c1)[C@@H](O)c1ccc(F)cc1)c1cccc2c1C=CCCCC2 (racemic) [Example 126, N-[(1RS,2SR)-2-(4-fluorophenyl)-2-hydroxy-1-[3-(1,1,2,2-tetrafluoroethoxy)benzyl]ethyl]-5,6,7,8-tetrahydrobenzo[a]cyclooctene-1-carboxamide]
0.035	0.95	165 to 166	O=C(N[C@H](Cc1cccc(OC(F)(F)C(F)F)c1)[C@@H](O)c1ccc(F)cc1)c1cccc2c1C=CCC2 (racemic) [Example 123, N-[(1RS,2SR)-2-(4-fluorophenyl)-2-hydroxy-1-[3-(1,1,2,2-tetrafluoroethoxy)benzyl]ethyl]-5,6-dihydronaphthalene-1-carboxamide]
0.3	2.5	210 to 211	O=C(N[C@H](Cc1ccc(C(F)(F)F)cc1)[C@@H](O)c1ccc(F)cc1)c1ccc(F)c2ccccc12 (racemic) [Example 30, 4-fluoro-N-((1RS,2SR)-2-(4-fluorophenyl)-2-hydroxy-1-((4-(trifluoromethyl)phenyl)methyl)ethyl)-1-naphthalenecarboxamide]
0.21	1.7	–	O=C(NC(Cc1ccc(C(F)(F)F)cc1)C(O)c1ccc(F)cc1)c1ccc(F)c2ccccc12 (stereo not drawn) [227(+)-form]

Continued, compound first:

SMILES	IC50 [1] [µM]	IC50 [2] [µM]	melting point [°C]
O=C(N[C@H](Cc1cccc(OC(F)(F)C(F)F)c1)[C@@H](O)c1ccc(Cl)cc1)c1cccc2c1C=CCCC2 (racemic) [Example 216, N-[(1RS,2SR)-2-(4-chlorophenyl)-2-hydroxy-1-[3-(1,1,2,2-tetrafluoroethoxy)benzyl]ethyl]-6,7-dihydro-5H-benzo[a]cycloheptene-1-carboxamide]	0.04	0.7	182 to 183
O=C(N[C@H](Cc1cccc(OC(F)(F)C(F)F)c1)[C@@H](O)c1ccc(Oc2ccccc2)cc1)c1cccc2c1C=CCCC2 (racemic) [Example 217, N-((1RS,2SR)-2-hydroxy-2-(4-(phenyloxy)phenyl)-1-((3-((1,1,2,2-tetrafluoroethyl)oxy)phenyl)methyl)ethyl)-6,7-dihydro-5H-benzo[a]cycloheptene-1-carboxamide]	0.0084	0.08	–
CCc1cc(Oc2ccc([C@H](O)[C@@H](Cc3cccc(OC(F)(F)C(F)F)c3)NC(=O)c3cccc4c3C=CCCC4)cc2)ccc1Cl (racemic) [Example 218, N-((1RS,2SR)-2-(4-((4-chloro-3-ethylphenyl)oxy)phenyl)-2-hydroxy-1-((3-((1,1,2,2-tetrafluoroethyl)oxy)phenyl)methyl)ethyl)-6,7-dihydro-5H-benzo[a]cycloheptene-1-carboxamide]	0.056	0.66	116 to 117
O=C(N[C@H](Cc1cccc(OC(F)(F)C(F)F)c1)[C@@H](O)c1ccc(F)cc1)c1cccc2c1CCCCC2 (racemic) [Example 124, N-[(1RS,2SR)-2-(4-fluorophenyl)-2-hydroxy-1-[3-(1,1,2,2-tetrafluoroethoxy)benzyl]ethyl]-6,7,8,9-tetrahydro-5H-benzo[a]cycloheptene-1-carboxamide]	0.046	2.4	194 to 195
O=C(N[C@H](Cc1ccc(C(F)(F)F)cc1)[C@@H](O)c1cccc(F)c1)c1cccc2c1C=CCCC2 (racemic) [Example 177, N-((1RS,2SR)-2-(3-fluorophenyl)-2-hydroxy-1-((4-(trifluoromethyl)phenyl)methyl)ethyl)-6,7-dihydro-5H-benzo[a]cycloheptene-1-carboxamide]	0.091	–	151 to 152
O=C(N[C@H](Cc1cccc(OC(F)(F)C(F)F)c1)[C@@H](O)c1ccnc(F)c1)c1cccc2c1C=CCCC2 (racemic) [Example 220, N-((1RS,2SR)-2-(2-fluoropyridin-4-yl)-2-hydroxy-1-((3-(1,1,2,2-tetrafluoroethoxy)phenyl)methyl)ethyl)-6,7-dihydro-5H-benzo[a]cycloheptene-1-carboxamide]	0.03	1.4	159 to 160
O=C(N[C@H](Cc1ccc(C(F)(F)F)cc1)[C@@H](O)c1ccc(F)cc1)c1cccc2c1C=CCCC2 (racemic) [Example 29, N-[(1RS,2SR)-2-(4-fluorophenyl)-2-hydroxy-1-[4-(trifluoromethyl)benzyl]ethyl]-6,7-dihydro-5H-benzo[a]cycloheptene-1-carboxamide]	0.12	–	197 to 198
O=C(NC(Cc1ccc(C(F)(F)F)cc1)C(O)c1ccc(F)cc1)c1cccc2ccccc12 (stereo not drawn) [226(+)-form]	0.4	4.2	–
O=C(N[C@H](Cc1ccc(C(F)(F)F)cc1)[C@@H](O)c1ccc(Oc2ccccc2)cc1)c1cccc2c1C=CCCC2 (racemic) [Example 210, N-((1RS,2SR)-2-hydroxy-2-(4-phenoxyphenyl)-1-((4-(trifluoromethyl)phenyl)methyl)ethyl)-6,7-dihydro-5H-benzo[a]cycloheptene-1-carboxamide]	0.088	1.4	–
CC(C)c1ccc(C[C@@H](NC(=O)c2cccc3c2C=CCCC3)[C@@H](O)c2ccc(F)cc2)cc1 (racemic) [Example 155, N-[(1RS,2SR)-2-(4-fluorophenyl)-2-hydroxy-1-(4-isopropylbenzyl)ethyl]-6,7-dihydro-5H-benzo[a]cycloheptene-1-carboxamide]	0.095	2.1	168 to 169
O=C(N[C@H](Cc1cccc(OC(F)(F)C(F)F)c1)[C@@H](O)c1cccc(F)n1)c1cccc2c1C=CCCC2 (racemic) [Example 222, N-((1RS,2RS)-2-(6-fluoropyridin-2-yl)-2-hydroxy-1-((3-(1,1,2,2-tetrafluoroethoxy)phenyl)methyl)ethyl)-6,7-dihydro-5H-benzo[a]cycloheptene-1-carboxamide]	0.079	–	151 to 152
